We go through 20 molecules from US8853203B2, “Diazepinone derivatives” (Novartis AG, priority 2012, dated 2014).

Experiment [1] deals with human mGluR5a receptors (Homo sapiens (Human), UniProt P41594). The experiment can be described thus: inhibition of glutamate-induced elevation of intracellular calcium in L(tk-) cells expressing human mGluR5a. The class given is cell-based. The conditions noted are these: for IC50: glutamate-induced intracellular calcium elevation, L(tk-) cells expressing human mGluR5a, read-out: mGluR5 IC50. The essentials:
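Compounds tested for inhibition of the glutamate-induced rise in intracellular calcium concentration in L(tk-) cells stably expressing human mGluR5a.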
In general terms: Calcium assays in cells follow changes in intracellular calcium, usually with a dye or a luminescent sensor.

Experiment [2] addresses human mGluR1 (Homo sapiens (Human), UniProt Q13255). The experiment can be described thus: mGluR1 antagonism, L-glutamate induced intracellular calcium increase (FLIPR) in CHO cells stably expressing human mGluR1. The class given is cell-based. The conditions noted are these: for IC50: L-glutamate induced intracellular calcium, CHO cells expressing human mGluR1, FLIPR.

For orientation: IC50 means the concentration needed to halve the response being measured. One may read the inhibition as the relative decrease from the control value, in per cent.

Structures are written as SMILES. Bounds are passed on as bounds.

human mGluR5a receptors, sequence (P41594 other isoform, or with tags, fused parts or gaps): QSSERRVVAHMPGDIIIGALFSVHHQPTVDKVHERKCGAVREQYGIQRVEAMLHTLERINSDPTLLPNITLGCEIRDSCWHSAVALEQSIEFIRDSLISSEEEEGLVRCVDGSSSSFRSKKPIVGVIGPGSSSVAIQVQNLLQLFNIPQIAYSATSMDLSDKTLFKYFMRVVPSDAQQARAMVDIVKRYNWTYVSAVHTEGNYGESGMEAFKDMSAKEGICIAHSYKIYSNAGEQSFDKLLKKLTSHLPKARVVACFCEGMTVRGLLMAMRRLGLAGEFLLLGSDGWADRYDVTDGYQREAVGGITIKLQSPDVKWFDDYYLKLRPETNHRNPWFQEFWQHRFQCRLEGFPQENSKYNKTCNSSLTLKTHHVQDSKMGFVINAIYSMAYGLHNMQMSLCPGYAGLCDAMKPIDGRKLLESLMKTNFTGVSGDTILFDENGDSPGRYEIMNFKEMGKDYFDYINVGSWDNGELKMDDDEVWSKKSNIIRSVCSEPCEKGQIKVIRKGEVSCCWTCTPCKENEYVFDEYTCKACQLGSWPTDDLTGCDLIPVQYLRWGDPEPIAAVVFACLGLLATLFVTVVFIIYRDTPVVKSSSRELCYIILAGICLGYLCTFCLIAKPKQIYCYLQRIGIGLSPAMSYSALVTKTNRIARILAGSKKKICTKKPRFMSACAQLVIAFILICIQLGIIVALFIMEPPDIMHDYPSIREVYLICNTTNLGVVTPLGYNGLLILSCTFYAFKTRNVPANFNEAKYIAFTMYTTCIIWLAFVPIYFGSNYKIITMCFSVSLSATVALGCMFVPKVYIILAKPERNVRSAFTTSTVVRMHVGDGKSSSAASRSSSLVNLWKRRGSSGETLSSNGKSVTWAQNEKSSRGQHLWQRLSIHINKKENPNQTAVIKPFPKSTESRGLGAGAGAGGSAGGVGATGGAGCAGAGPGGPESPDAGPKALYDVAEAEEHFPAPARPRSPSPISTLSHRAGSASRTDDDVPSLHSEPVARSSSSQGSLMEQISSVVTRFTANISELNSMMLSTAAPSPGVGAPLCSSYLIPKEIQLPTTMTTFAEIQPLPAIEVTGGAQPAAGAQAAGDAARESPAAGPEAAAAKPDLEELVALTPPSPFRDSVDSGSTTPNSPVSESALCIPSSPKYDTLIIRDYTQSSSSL
human mGluR1, sequence (Q13255 19-1194): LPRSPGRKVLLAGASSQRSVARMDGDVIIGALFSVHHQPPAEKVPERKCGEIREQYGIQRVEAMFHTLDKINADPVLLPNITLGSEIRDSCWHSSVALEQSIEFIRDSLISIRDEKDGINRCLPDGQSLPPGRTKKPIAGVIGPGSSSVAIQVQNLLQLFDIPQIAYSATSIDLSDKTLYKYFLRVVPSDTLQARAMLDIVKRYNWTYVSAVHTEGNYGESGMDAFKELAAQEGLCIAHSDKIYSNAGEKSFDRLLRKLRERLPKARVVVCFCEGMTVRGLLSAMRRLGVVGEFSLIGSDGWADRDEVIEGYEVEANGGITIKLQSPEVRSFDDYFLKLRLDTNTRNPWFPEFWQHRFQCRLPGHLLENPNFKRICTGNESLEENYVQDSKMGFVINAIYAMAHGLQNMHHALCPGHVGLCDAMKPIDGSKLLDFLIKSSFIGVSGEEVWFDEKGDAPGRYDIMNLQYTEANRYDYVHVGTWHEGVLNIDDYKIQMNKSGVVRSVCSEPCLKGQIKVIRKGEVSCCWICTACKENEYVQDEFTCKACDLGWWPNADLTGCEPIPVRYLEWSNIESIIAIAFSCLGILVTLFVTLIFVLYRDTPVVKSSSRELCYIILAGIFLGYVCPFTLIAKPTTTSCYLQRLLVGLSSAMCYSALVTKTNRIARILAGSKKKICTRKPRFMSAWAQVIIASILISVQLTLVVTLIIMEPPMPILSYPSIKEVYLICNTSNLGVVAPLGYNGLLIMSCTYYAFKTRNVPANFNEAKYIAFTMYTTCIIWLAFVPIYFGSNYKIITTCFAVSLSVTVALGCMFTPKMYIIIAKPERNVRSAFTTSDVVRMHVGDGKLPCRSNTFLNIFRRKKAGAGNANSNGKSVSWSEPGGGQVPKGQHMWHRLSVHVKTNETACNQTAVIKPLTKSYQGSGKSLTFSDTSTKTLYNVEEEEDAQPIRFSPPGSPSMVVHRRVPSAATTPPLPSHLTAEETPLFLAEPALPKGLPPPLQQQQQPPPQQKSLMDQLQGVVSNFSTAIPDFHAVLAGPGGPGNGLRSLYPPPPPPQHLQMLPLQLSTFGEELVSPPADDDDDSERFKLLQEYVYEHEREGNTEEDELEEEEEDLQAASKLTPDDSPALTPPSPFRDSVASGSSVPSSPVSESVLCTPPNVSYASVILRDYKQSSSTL

For the molecule `O=C1CN=C(n2cnc(C3CCC3)c2)C=C2c3cccc(N4CCOCC4)c3CCN12` [Example 70, 2-(4-cyclobutyl-1H-imidazol-1-yl)-9-morpholino-7,8-dihydro-[1,4]diazepino[7,1-a]isoquinolin-5(4H)-one], the IC50 in experiment [1] was 49 nM; in experiment [2], over 10000 nM.
With `CCc1cccc2c1CCN1C(=O)CN=C(n3cnc(C(C)C)c3)C=C21` [Example 89, 9-ethyl-2-(4-isopropyl-1H-imidazol-1-yl)-7,8-dihydro-[1,4]diazepino[7,1-a]isoquinolin-5(4H)-one], the 50% inhibitory concentration (IC50) was found to be 28 nM in experiment [1] and 650 nM in experiment [2].
In the case of `COc1cccc(C2=NCC(=O)N3CCc4c(cccc4N4CCOCC4)C3=C2)c1` [Example 41, 2-(3-methoxyphenyl)-9-morpholino-7,8-dihydro-[1,4]diazepino[7,1-a]isoquinolin-5(4H)-one], the IC50 is 32 nM in experiment [1] and over 10000 nM in experiment [2].
For `CCc1cn(C2=NCC(=O)N3CCc4c(cccc4C4(F)COC4)C3=C2)cn1` [Example 114, 2-(4-ethyl-1H-imidazol-1-yl)-9-(3-fluorooxetan-3-yl)-7,8-dihydro-[1,4]diazepino[7,1-a]isoquinolin-5(4H)-one], the IC50 in experiment [1] is 1600 nM; in experiment [2] it was over 10000 nM.
Consider `COc1cccc(C2=NCC(=O)N3CCc4c(OC)cccc4C3=C2)c1` [Example 1, 9-methoxy-2-(3-methoxyphenyl)-7,8-dihydro-[1,4]diazepino[7,1-a]isoquinolin-5(4H)-one], for which the half-inhibitory concentration (IC50) in experiment [1] came to 327 nM; in experiment [2], 6400 nM.
`Cn1ccc(C2=NCC(=O)N3CCc4c(C#N)cccc4C3=C2)n1` [Example 40, 2-(1-methyl-1H-pyrazol-3-yl)-5-oxo-4,5,7,8-tetrahydro-[1,4]diazepino[7,1-a]isoquinoline-9-carbonitrile]: the concentration for half-maximal inhibition (IC50) was 5200 nM in experiment [1] and over 10000 nM in experiment [2].
Turning to `O=C1CN=C(n2cnc(C3CC3)c2)C=C2c3cccc(-c4ccc(F)nc4)c3CCN12` [Example 95-1, 2-(4-cyclopropyl-1H-imidazol-1-yl)-9-(6-fluoropyridin-3-yl)-7,8-dihydro-[1,4]diazepino[7,1-a]isoquinolin-5(4H)-one], the half-maximal inhibitory concentration (IC50) in experiment [1] stood at 20 nM; in experiment [2] it was 10000 nM.
Consider `O=C1CN=C(n2cnc(C3CC3)c2)C=C2c3cccc(-c4ccno4)c3CCN12` [Example 100, 2-(4-cyclopropyl-1H-imidazol-1-yl)-9-(isoxazol-5-yl)-7,8-dihydro-[1,4]diazepino[7,1-a]isoquinolin-5(4H)-one], for which the concentration for half-maximal inhibition (IC50) is 19 nM in experiment [1] and 560 nM in experiment [2].
In the case of `C=Cc1cccc2c1CCN1C(=O)CN=C(n3cnc(COC)c3)C=C21` [Example 85, 2-(4-(methoxymethyl)-1H-imidazol-1-yl)-9-vinyl-7,8-dihydro-[1,4]diazepino[7,1-a]isoquinolin-5(4H)-one], the values for the 50% inhibitory concentration (IC50) in experiment [1] and in experiment [2] were 39 nM and 1600 nM, respectively.
`CCC(=O)c1cccc2c1CCN1C(=O)CN=C(n3cnc(C4CCC4)c3)C=C21` [Example 124, 2-(4-cyclobutyl-1H-imidazol-1-yl)-9-propionyl-7,8-dihydro-[1,4]diazepino[7,1-a]isoquinolin-5(4H)-one]: the half-maximal inhibitory concentration (IC50) in experiment [1] was found to be 5 nM; in experiment [2] it was 3300 nM.
For `COCc1ncn(C2=NCC(=O)N3CCc4c(cccc4C4CC4)C3=C2)n1` [Example 93, 9-cyclopropyl-2-(3-(methoxymethyl)-1H-1,2,4-triazol-1-yl)-7,8-dihydro-[1,4]diazepino[7,1-a]isoquinolin-5(4H)-one], the half-maximal inhibitory concentration (IC50) came out at 3 nM in experiment [1] and 1500 nM in experiment [2].
Consider `Cc1cc(-c2cccc3c2CCN2C(=O)CN=C(c4ccn(C)n4)C=C32)ccn1` [Example 56, 2-(1-methyl-1H-pyrazol-3-yl)-9-(2-methylpyridin-4-yl)-7,8-dihydro-[1,4]diazepino[7,1-a]isoquinolin-5(4H)-one], for which the inhibition at 10 µM in experiment [1] (LTK, read-out: mGluR5 % inhibition at 10 μM) came to 24%; in experiment [2] (CHO), 0%.
As for `CCc1ncn(C2=NCC(=O)N3CCc4c(cccc4-c4ccc(F)nc4)C3=C2)n1` [Example 102, 2-(3-ethyl-1H-1,2,4-triazol-1-yl)-9-(6-fluoropyridin-3-yl)-7,8-dihydro-[1,4]diazepino[7,1-a]isoquinolin-5(4H)-one], the figures for the half-inhibitory concentration (IC50) in experiment [1] and in experiment [2] were 16 nM and over 10000 nM, respectively.
For `CC(=O)c1cccc2c1CCN1C(=O)CN=C(n3cnc(C)c3)C=C21` [Example 116, 9-acetyl-2-(4-methyl-1H-imidazol-1-yl)-7,8-dihydro-[1,4]diazepino[7,1-a]isoquinolin-5(4H)-one], in that order: 410 nM and over 10000 nM.
As for `COc1cccc2c1CCN1C(=O)CN=C(c3ccc(C)o3)C=C21` [Example 7, 9-methoxy-2-(5-methylfuran-2-yl)-7,8-dihydro-[1,4]diazepino[7,1-a]isoquinolin-5(4H)-one], the values for the concentration for half-maximal inhibition (IC50) in experiment [1] and in experiment [2] were 24 nM and 210 nM, respectively.
As for `Cc1cn(C2=NCC(=O)N3CCc4c(ccc(F)c4-c4cccnc4F)C3=C2)cn1` [Example 99s, 10-fluoro-9-(2-fluoropyridin-3-yl)-2-(4-methyl-1H-imidazol-1-yl)-7,8-dihydro-[1,4]diazepino[7,1-a]isoquinolin-5(4H)-one], the 50% inhibitory concentration (IC50) in experiment [1] is 153 nM; in experiment [2] it was over 10000 nM.
For `O=C1CN=C(n2cnc(CF)c2)C=C2c3cccc(C4CC4)c3CCN12` [Example 99m, 9-cyclopropyl-2-(4-(fluoromethyl)-1H-imidazol-1-yl)-7,8-dihydro-[1,4]diazepino[7,1-a]isoquinolin-5(4H)-one] the same measures were 2 nM and 672 nM.
Regarding `O=C1CN=C(n2cnc(C3CCC3)c2)C=C2c3cccc(-n4cccn4)c3CCN12` [Example 69, 2-(4-cyclobutyl-1H-imidazol-1-yl)-9-(1H-pyrazol-1-yl)-7,8-dihydro-[1,4]diazepino[7,1-a]isoquinolin-5(4H)-one], the IC50 in experiment [1] is 20 nM; in experiment [2], over 10000 nM.
As to `Cn1cnc(C2=NCC(=O)N3CCc4c(cccc4-c4ccncc4)C3=C2)c1` [Example 55, 2-(1-methyl-1H-imidazol-4-yl)-9-(pyridin-4-yl)-7,8-dihydro-[1,4]diazepino[7,1-a]isoquinolin-5(4H)-one], the results for the IC50 in experiment [1] and in experiment [2] were 4900 nM and over 10000 nM, respectively.
For `O=C1CN=C(n2cnc(C3CC3)n2)C=C2c3ccc(F)c(-c4cccnc4F)c3CCN12` [Example 99q, 2-(3-cyclopropyl-1H-1,2,4-triazol-1-yl)-10-fluoro-9-(2-fluoropyridin-3-yl)-7,8-dihydro-[1,4]diazepino[7,1-a]isoquinolin-5(4H)-one], in that order: 88 nM and over 6000 nM.
